From ChEMBL document CHEMBL3885861, “Open TG-GATES”

Species: Rattus norvegicus
Assay: Open TG-GATES - Regimen: Single
Assay type: toxicity, organism-based, Sprague-Dawley
Design: regimen Single, gender Male, age 6 weeks
Details: in vivo, po, 50 mg/kg, route gavage, dose level Low; for APTT / Bas / Eos / Fbg / Hb / Ht / Lym / MCH / MCHC / MCV / Mono / Neu / PT / Plat / RBC / Ret / WBC: tissue Blood; for KIDNEY_L / KIDNEY_R / KIDNEY_TOTAL: tissue Kidney; for LIVER: tissue Liver; for A/G / ALP / ALT / AST / BUN / CRE / Ca / Cl / DBIL / GLC / IP / K / LDH / Na / PL / RALB / TBIL / TC / TG / TP / gamma-GTP: tissue Plasma

Question: CN1C(=O)OC(C)(C)C1=O [TRIMETHADIONE] was tested. Which TERMINAL_BW (3 h) did it give?
Answer: 208.1 g

Question: And the APTT (3 h)?
Answer: 16.8 s

Question: And the Bas (3 h)?
Answer: 0%

Question: And the Eos (3 h)?
Answer: 0.8%

Question: What about the Fbg (3 h) of the same molecule?
Answer: 278 mg/dL

Question: What about the Hb (3 h) of the same molecule?
Answer: 13.4 g/dL

Question: And the Ht (3 h)?
Answer: 40.2%

Question: And the Lym (3 h)?
Answer: 78.4%

Question: And the MCH (3 h)?
Answer: 21.3 pg

Question: And the MCHC (3 h)?
Answer: 33.3%

Question: And the MCV (3 h)?
Answer: 64 fL

Question: And the Mono (3 h)?
Answer: 3%

Question: And the Neu (3 h)?
Answer: 17.4%

Question: What about the PT (3 h) of the same molecule?
Answer: 13.8 s

Question: And the Plat (3 h)?
Answer: 129 x10_4/uL

Question: What about the RBC (3 h) of the same molecule?
Answer: 628.4 x10_4/ul

Question: What about the Ret (3 h) of the same molecule?
Answer: 8.1%

Question: What about the WBC (3 h) of the same molecule?
Answer: 86.2 x10_2/uL

Question: What about the KIDNEY_L (3 h) of the same molecule?
Answer: 0.9 g

Question: And the KIDNEY_R (3 h)?
Answer: 0.9 g

Question: And the KIDNEY_TOTAL (3 h)?
Answer: 1.8 g

Question: And the LIVER (3 h)?
Answer: 9.6 g

Question: What about the A/G (3 h) of the same molecule?
Answer: 0.9

Question: What about the ALP (3 h) of the same molecule?
Answer: 1564.2 IU/L

Question: And the ALT (3 h)?
Answer: 42.6 IU/L

Question: And the AST (3 h)?
Answer: 80.4 IU/L

Question: What about the BUN (3 h) of the same molecule?
Answer: 10.4 mg/dL

Question: And the CRE (3 h)?
Answer: 0.2 mg/dL

Question: What about the Ca (3 h) of the same molecule?
Answer: 10.6 mg/dL

Question: And the Cl (3 h)?
Answer: 108.2 meq/L

Question: What about the DBIL (3 h) of the same molecule?
Answer: 0.006 mg/dL

Question: And the GLC (3 h)?
Answer: 180.8 mg/dL

Question: And the IP (3 h)?
Answer: 8.7 mg/dL

Question: What about the K (3 h) of the same molecule?
Answer: 4.1 meq/L

Question: And the LDH (3 h)?
Answer: 133.8 IU/L

Question: And the Na (3 h)?
Answer: 141.4 meq/L

Question: And the PL (3 h)?
Answer: 146.8 mg/dL

Question: What about the RALB (3 h) of the same molecule?
Answer: 2.5 g/dL

Question: And the TBIL (3 h)?
Answer: 0.064 mg/dL

Question: What about the TC (3 h) of the same molecule?
Answer: 76.4 mg/dL

Question: And the TG (3 h)?
Answer: 77.8 mg/dL

Question: And the TP (3 h)?
Answer: 5.4 g/dL

Question: What about the gamma-GTP (3 h) of the same molecule?
Answer: 1.6 IU/L

Question: What about the TERMINAL_BW (6 h) of the same molecule?
Answer: 207.4 g

Question: And the APTT (6 h)?
Answer: 17 s

Question: And the Bas (6 h)?
Answer: 0%

Question: And the Eos (6 h)?
Answer: 1%

Question: What about the Fbg (6 h) of the same molecule?
Answer: 268.2 mg/dL

Question: And the Hb (6 h)?
Answer: 13.5 g/dL

Question: What about the Ht (6 h) of the same molecule?
Answer: 40.5%

Question: What about the Lym (6 h) of the same molecule?
Answer: 78.6%

Question: And the MCH (6 h)?
Answer: 21.6 pg

Question: And the MCHC (6 h)?
Answer: 33.2%

Question: What about the MCV (6 h) of the same molecule?
Answer: 64.9 fL

Question: And the Mono (6 h)?
Answer: 2.4%

Question: And the Neu (6 h)?
Answer: 17.2%

Question: What about the PT (6 h) of the same molecule?
Answer: 13.7 s

Question: And the Plat (6 h)?
Answer: 120 x10_4/uL

Question: And the RBC (6 h)?
Answer: 625.4 x10_4/ul

Question: What about the Ret (6 h) of the same molecule?
Answer: 8%

Question: What about the WBC (6 h) of the same molecule?
Answer: 71.3 x10_2/uL

Question: And the KIDNEY_L (6 h)?
Answer: 0.9 g

Question: And the KIDNEY_R (6 h)?
Answer: 0.9 g

Question: And the KIDNEY_TOTAL (6 h)?
Answer: 1.9 g

Question: And the LIVER (6 h)?
Answer: 8.6 g

Question: What about the A/G (6 h) of the same molecule?
Answer: 0.9

Question: What about the ALP (6 h) of the same molecule?
Answer: 1854.2 IU/L

Question: What about the ALT (6 h) of the same molecule?
Answer: 39.8 IU/L

Question: What about the AST (6 h) of the same molecule?
Answer: 79.8 IU/L

Question: And the BUN (6 h)?
Answer: 10.8 mg/dL

Question: And the CRE (6 h)?
Answer: 0.2 mg/dL

Question: And the Ca (6 h)?
Answer: 10.7 mg/dL

Question: What about the Cl (6 h) of the same molecule?
Answer: 108 meq/L

Question: What about the DBIL (6 h) of the same molecule?
Answer: 0.004 mg/dL

Question: And the GLC (6 h)?
Answer: 185.6 mg/dL

Question: And the IP (6 h)?
Answer: 8.9 mg/dL

Question: What about the K (6 h) of the same molecule?
Answer: 4.2 meq/L

Question: And the LDH (6 h)?
Answer: 130.4 IU/L

Question: What about the Na (6 h) of the same molecule?
Answer: 140.8 meq/L

Question: And the PL (6 h)?
Answer: 139.4 mg/dL

Question: What about the RALB (6 h) of the same molecule?
Answer: 2.5 g/dL

Question: And the TBIL (6 h)?
Answer: 0.06 mg/dL

Question: And the TC (6 h)?
Answer: 77.2 mg/dL

Question: And the TG (6 h)?
Answer: 54.4 mg/dL

Question: And the TP (6 h)?
Answer: 5.3 g/dL

Question: And the gamma-GTP (6 h)?
Answer: 1.2 IU/L

Question: And the TERMINAL_BW (9 h)?
Answer: 201.4 g

Question: And the APTT (9 h)?
Answer: 18.8 s

Question: And the Bas (9 h)?
Answer: 0%

Question: And the Eos (9 h)?
Answer: 1%

Question: What about the Fbg (9 h) of the same molecule?
Answer: 285.2 mg/dL

Question: And the Hb (9 h)?
Answer: 13.2 g/dL

Question: What about the Ht (9 h) of the same molecule?
Answer: 39.8%

Question: And the Lym (9 h)?
Answer: 78.8%

Question: And the MCH (9 h)?
Answer: 21.5 pg

Question: What about the MCHC (9 h) of the same molecule?
Answer: 33.2%

Question: And the MCV (9 h)?
Answer: 64.6 fL

Question: And the Mono (9 h)?
Answer: 2%

Question: What about the Neu (9 h) of the same molecule?
Answer: 17.6%

Question: And the PT (9 h)?
Answer: 13.6 s

Question: What about the Plat (9 h) of the same molecule?
Answer: 142.2 x10_4/uL

Question: What about the RBC (9 h) of the same molecule?
Answer: 615.4 x10_4/ul

Question: What about the Ret (9 h) of the same molecule?
Answer: 8.1%

Question: And the WBC (9 h)?
Answer: 80.8 x10_2/uL

Question: And the KIDNEY_L (9 h)?
Answer: 0.9 g

Question: What about the KIDNEY_R (9 h) of the same molecule?
Answer: 0.9 g

Question: And the KIDNEY_TOTAL (9 h)?
Answer: 1.8 g

Question: And the LIVER (9 h)?
Answer: 7.5 g

Question: And the A/G (9 h)?
Answer: 0.9

Question: And the ALP (9 h)?
Answer: 1414 IU/L

Question: And the ALT (9 h)?
Answer: 34.8 IU/L

Question: What about the AST (9 h) of the same molecule?
Answer: 74.6 IU/L

Question: And the BUN (9 h)?
Answer: 8.4 mg/dL

Question: What about the CRE (9 h) of the same molecule?
Answer: 0.2 mg/dL

Question: And the Ca (9 h)?
Answer: 10.4 mg/dL

Question: What about the Cl (9 h) of the same molecule?
Answer: 108.6 meq/L

Question: What about the DBIL (9 h) of the same molecule?
Answer: 0.002 mg/dL

Question: And the GLC (9 h)?
Answer: 158.8 mg/dL

Question: And the IP (9 h)?
Answer: 9.7 mg/dL

Question: What about the K (9 h) of the same molecule?
Answer: 3.9 meq/L

Question: And the LDH (9 h)?
Answer: 99.8 IU/L

Question: And the Na (9 h)?
Answer: 141.2 meq/L

Question: And the PL (9 h)?
Answer: 143.2 mg/dL

Question: And the RALB (9 h)?
Answer: 2.5 g/dL

Question: What about the TBIL (9 h) of the same molecule?
Answer: 0.064 mg/dL

Question: What about the TC (9 h) of the same molecule?
Answer: 84.6 mg/dL

Question: And the TG (9 h)?
Answer: 33.2 mg/dL

Question: What about the TP (9 h) of the same molecule?
Answer: 5.3 g/dL

Question: And the gamma-GTP (9 h)?
Answer: 1.2 IU/L

Question: What about the TERMINAL_BW (24 h) of the same molecule?
Answer: 222.7 g

Question: What about the APTT (24 h) of the same molecule?
Answer: 19.1 s

Question: What about the Bas (24 h) of the same molecule?
Answer: 0%

Question: And the Eos (24 h)?
Answer: 1%

Question: And the Fbg (24 h)?
Answer: 267 mg/dL

Question: What about the Hb (24 h) of the same molecule?
Answer: 13.4 g/dL

Question: And the Ht (24 h)?
Answer: 40.3%

Question: And the Lym (24 h)?
Answer: 76.4%

Question: What about the MCH (24 h) of the same molecule?
Answer: 21.6 pg

Question: What about the MCHC (24 h) of the same molecule?
Answer: 33.2%

Question: And the MCV (24 h)?
Answer: 64.9 fL

Question: And the Mono (24 h)?
Answer: 2.8%

Question: And the Neu (24 h)?
Answer: 19.4%

Question: And the PT (24 h)?
Answer: 13.4 s

Question: What about the Plat (24 h) of the same molecule?
Answer: 118.6 x10_4/uL

Question: What about the RBC (24 h) of the same molecule?
Answer: 620 x10_4/ul

Question: What about the Ret (24 h) of the same molecule?
Answer: 7.3%

Question: And the WBC (24 h)?
Answer: 100.7 x10_2/uL

Question: What about the KIDNEY_L (24 h) of the same molecule?
Answer: 1 g

Question: What about the KIDNEY_R (24 h) of the same molecule?
Answer: 1 g

Question: What about the KIDNEY_TOTAL (24 h) of the same molecule?
Answer: 1.9 g

Question: What about the LIVER (24 h) of the same molecule?
Answer: 10 g

Question: And the A/G (24 h)?
Answer: 0.8

Question: What about the ALP (24 h) of the same molecule?
Answer: 2138 IU/L

Question: And the ALT (24 h)?
Answer: 47.4 IU/L

Question: And the AST (24 h)?
Answer: 77.8 IU/L

Question: And the BUN (24 h)?
Answer: 14.6 mg/dL

Question: What about the CRE (24 h) of the same molecule?
Answer: 0.2 mg/dL

Question: What about the Ca (24 h) of the same molecule?
Answer: 10.8 mg/dL

Question: And the Cl (24 h)?
Answer: 105 meq/L

Question: What about the DBIL (24 h) of the same molecule?
Answer: 0.008 mg/dL

Question: What about the GLC (24 h) of the same molecule?
Answer: 173.2 mg/dL

Question: What about the IP (24 h) of the same molecule?
Answer: 7.4 mg/dL

Question: What about the K (24 h) of the same molecule?
Answer: 4 meq/L

Question: And the LDH (24 h)?
Answer: 112.2 IU/L

Question: And the Na (24 h)?
Answer: 142.6 meq/L

Question: And the PL (24 h)?
Answer: 151.4 mg/dL

Question: What about the RALB (24 h) of the same molecule?
Answer: 2.6 g/dL

Question: And the TBIL (24 h)?
Answer: 0.05 mg/dL

Question: What about the TC (24 h) of the same molecule?
Answer: 77.6 mg/dL

Question: And the TG (24 h)?
Answer: 99.4 mg/dL

Question: And the TP (24 h)?
Answer: 5.7 g/dL

Question: And the gamma-GTP (24 h)?
Answer: 1.2 IU/L
